Measurements from patent US12398154B2, “Azaquinazoline pan-KRas inhibitors” (Mirati Therapeutics, Inc., priority 2020, dated 2025).

Tests used:
[1] = biological target: KRas G12R (Homo sapiens, UniProt P01116, G12R); experiment: biochemical;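 also: TR-FRET displacement assay of compound binding to KRas, read after one hour at room temperature, potency from a four-parameter fit of percent-of-control values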
Protocol: (§1) The ability of a compound to bind to KRas was measured using a TR-FRET displacement assay. […] After a 60-minute incubation at room temperature, the reaction was measured using a BMG LABTECH CLARIO star Plus via TR-FRET. […] The POC values were fit to a 4-parameter IC50 equation and the IC50 value reported.

[2] = biological target: KRas G12D (Homo sapiens, UniProt P01116, G12D); experiment: biochemical;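 also: TR-FRET displacement binding assay on KRas, read after a one-hour incubation at room temperature, IC50 fitted from percent-of-control values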
Protocol: as §1

[3] = system: pERK in H727 cells; experiment: Inhibition of KRas phosphorylation of ERK (Cisbio HTRF pERK assay); conditions: Homo sapiens, NCI-H727, read-out: Inhibition (HTRF IC50) of KRas-mediated Phosphorylation of ERK, H727
[4] = biological target: KRas G12V (Homo sapiens, UniProt P01116, G12V); experiment: biochemical;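 also: KRas binding measured by TR-FRET displacement at room temperature, IC50 fitted from percent of control values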
Protocol: as §1

[5] = system: pERK in PSN1 cells; experiment: Inhibition of KRas phosphorylation of ERK (Cisbio HTRF pERK assay); conditions: Homo sapiens, PSN1, 3 h, read-out: Inhibition (HTRF IC50) of KRas-mediated Phosphorylation of ERK, PSN1
[6] = system: pERK in ASPC1 cells; experiment: as above; conditions: Homo sapiens, ASPC1, read-out: Inhibition (HTRF IC50) of KRas-mediated Phosphorylation of ERK, AsPC-1
[7] = system: pERK in MKN1 cells; experiment: as above; conditions: Homo sapiens, MKN-1, 3 h, read-out: Inhibition (HTRF IC50) of KRas-mediated Phosphorylation of ERK, MKN1
Protocol: To harvest cells from flask using 0.05% Trypsin/EDTA solution. Add 10 mL of media to stop trypsinizing. Pipette the cells into a conical bottom 50 mL centrifuge tube and centrifuge 5 min×1000 rpm. • 2. Re-suspend the cell pellet in media, take a cell count, and then adjust the cell density using fresh media. • 3. Seed 6,000 cells into cell culture plate with 50 μL media. […] Incubate cell plate overnight in a 37° C., 5% CO2 incubator. • Compound titrations • 1. Use Tecan to complete the compound addition. Compounds start from 10 uM top, 3-fold dilution, and 10 doses. The final DMSO concentration is 0.8%. Dispensed 0.2 uM Trametinib as Min control. • 2. Incubate cell plate for 3 hrs in the incubator. • Detection with cisbio pERK HTRF kit • 1. […] At the end of the compound treatment, flick-off the media. • 3. Add 35 μL of lysis buffer per well using a Multidrop Combi. Then place on a plate agitator shaking at 300 rpm at 4° C. for 40 mins. • 4. Make up the HTRF antibody buffer. For each assay plate, mix 50 μL of d2-conjugate antibody with 950 μL of detection buffer. Similarly, mix 50 μL of Cryptate antibody with 950 μL of detection buffer. Then mix the two diluted antibodies together. • 5. Dispense 3.4 μL the antibody buffer to wells of an empty assay plate. Seal the plate and centrifuge plate 30 sec×1000 rpm. • 6. At the end of the 4° C. lysis, centrifuge the lysate plates 3 mins×1500 rpm. • 7. Use the Bravo to transfer 13.6 μL of lysate from cell culture plate to assay plate.
Then incubate assay plate for 2 hrs at room temperature. […] At the end of incubation, read plate on the Envision after centrifuging plate 30 sec× • 1000 rpm.

[8] = biological target: KRas G12C (Homo sapiens, UniProt P01116, G12C); experiment: biochemical;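 also: binding to KRas assessed by TR-FRET displacement after one hour incubation at room temperature, potency fitted from percent-of-control values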
Chain of KRas G12C (P01116 1-169 isoform P01116-2 G12C): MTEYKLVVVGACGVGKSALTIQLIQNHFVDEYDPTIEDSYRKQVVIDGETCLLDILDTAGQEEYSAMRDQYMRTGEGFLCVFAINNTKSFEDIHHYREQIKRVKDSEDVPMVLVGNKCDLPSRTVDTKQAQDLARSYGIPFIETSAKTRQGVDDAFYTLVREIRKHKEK
Protocol: as §1

Chain of KRas G12V (P01116 1-169 isoform P01116-2 G12V): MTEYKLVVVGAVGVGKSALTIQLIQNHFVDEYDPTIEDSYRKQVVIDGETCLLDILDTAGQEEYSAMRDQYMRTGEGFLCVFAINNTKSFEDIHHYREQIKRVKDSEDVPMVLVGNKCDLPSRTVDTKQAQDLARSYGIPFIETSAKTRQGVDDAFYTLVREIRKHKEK
Chain of KRas G12D (P01116 1-169 isoform P01116-2 G12D): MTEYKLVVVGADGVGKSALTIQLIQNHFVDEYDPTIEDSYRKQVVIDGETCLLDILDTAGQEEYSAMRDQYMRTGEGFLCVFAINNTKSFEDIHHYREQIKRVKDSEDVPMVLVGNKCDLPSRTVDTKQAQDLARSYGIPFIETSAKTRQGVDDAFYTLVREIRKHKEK
Chain of KRas G12R (P01116 1-169 isoform P01116-2 G12R): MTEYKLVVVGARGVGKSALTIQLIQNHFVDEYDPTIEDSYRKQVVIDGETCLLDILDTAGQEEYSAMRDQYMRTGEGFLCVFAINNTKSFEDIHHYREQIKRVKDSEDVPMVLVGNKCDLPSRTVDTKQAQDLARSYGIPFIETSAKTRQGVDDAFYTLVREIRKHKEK

Row | Structure (SMILES) | IC50 [1] | IC50 [2] | IC50 [3] | IC50 [4] | IC50 [5] | IC50 [6] | IC50 [7] | IC50 [8]
1 | Nc1cc2n(n1)CCCN(c1nc(OC[C@@]34CCCN3C[C@H](F)C4)nc3c(F)c(-c4cc(O)cc5ccc(F)c(Cl)c45)ncc13)C2 [Example 426, 4-(4-(2-amino-7,8-dihydro-4H-pyrazolo[1,5-a][1,4]diazepin-5(6H)-yl)-8-fluoro-2-(((2R,7aS)-2-fluorohexahydro-1H-pyrrolizin-7a-yl)methoxy)pyrido[4,3-d]pyrimidin-7-yl)-5-chloro-6-fluoronaphthalen-2-ol] | ≤ 0.002 µM | ≤ 0.002 µM | 1.22 µM | ≤ 0.002 µM | ≥ 10 µM | 0.652 µM | 0.264 µM | –
2 | CCc1c(F)ccc2cc(O)cc(-c3ncc4c(N5C[C@@H]6C(=O)NNC(=O)[C@@H]6C5)nc(OC[C@@]56CCCN5C[C@H](F)C6)nc4c3F)c12 [Example 363, (4aR,7aS)-6-(7-(8-ethyl-7-fluoro-3-hydroxynaphthalen-1-yl)-8-fluoro-2-(((2R,7aS)-2-fluorotetrahydro-1H-pyrrolizin-7a(5H)-yl)methoxy)pyrido[4,3-d]pyrimidin-4-yl)hexahydro-1H-pyrrolo[3,4-d]pyridazine-1,4(4aH)-dione] | 0.01 µM | 0.201 µM | ≥ 10 µM | 0.057 µM | ≥ 10 µM | ≥ 10 µM | ≥ 10 µM | –
3 | CCc1c(F)ccc2cc(O)cc(-c3ncc4c(NCC5CNC(=O)N5)nc(OC[C@@]56CCCN5C[C@H](F)C6)nc4c3F)c12 (stereo partly drawn) [Example 370, 4-(((7-(8-ethyl-7-fluoro-3-hydroxynaphthalen-1-yl)-8-fluoro-2-(((2R,7aS)-2-fluorohexahydro-1H-pyrrolizin-7a-yl)methoxy)pyrido[4,3-d]pyrimidin-4-yl)amino)methyl)imidazolidin-2-one] | 0.005 µM | 0.011 µM | 0.516 µM | ≤ 0.002 µM | ≥ 10 µM | 2.98 µM | 0.33 µM | –
4 | CCc1c(F)ccc2cc(O)cc(-c3ncc4c(N5CCCC6(CC(F)C6)C5)nc(OC[C@@]56CCCN5C[C@H](F)C6)nc4c3F)c12 (stereo partly drawn) [Example 344, 5-ethyl-6-fluoro-4-(8-fluoro-4-(2-fluoro-6-azaspiro[3.5]nonan-6-yl)-2-(((2R,7aS)-2-fluorohexahydro-1H-pyrrolizin-7a-yl)methoxy)pyrido[4,3-d]pyrimidin-7-yl)naphthalen-2-ol] | 0.094 µM | 0.138 µM | 4.82 µM | 0.083 µM | ≥ 10 µM | 3.41 µM | 0.796 µM | –
5 | CCc1c(F)ccc2cc(O)cc(-c3ncc4c(N(C)CC5CC(=O)N5)nc(OC[C@@]56CCCN5C[C@H](F)C6)nc4c3F)c12 (stereo partly shown) [Example 384] | 0.032 µM | 0.038 µM | ≥ 10 µM | 0.012 µM | – | ≥ 10 µM | – | –
6 | CCc1c(F)ccc2cc(O)cc(-c3ncc4c(N5C[C@H]6C[C@@H](C5)[C@H](CO)[C@H]6O)nc(OC[C@@]56CCCN5C[C@H](F)C6)nc4c3F)c12 [Example 486, (1 R,5R,6S,7R)-3-(7-(8-ethyl-7-fluoro-3-hydroxynaphthalen-1-yl)-8-fluoro-2-(((2R,7aS)-2-fluorohexahydro-1H-pyrrolizin-7a-yl)methoxy)pyrido[4,3-d]pyrimidin-4-yl)-7-(hydroxymethyl)-3-azabicyclo[3.2.1]octan-6-ol] | 0.186 µM | 0.336 µM | ≥ 10 µM | 0.17 µM | – | ≥ 10 µM | – | –
7 | Cc1cc2[nH]ncc2c(-c2ncc3c(N4CCCC(C)(O)C4)nc(OCC45CCCN4CCC5)nc3c2F)c1C (stereo not shown) [Example 25, 1-(7-(5,6-dimethyl-1H-indazol-4-yl)-8-fluoro-2-((hexahydro-1H-pyrrolizin-7a-yl)methoxy)pyrido[4,3-d]pyrimidin-4-yl)-3-methylpiperidin-3-ol] | 1.31 µM | 0.433 µM | ≥ 10 µM | 0.633 µM | – | ≥ 10 µM | – | 0.679 µM
8 | Cc1cc2[nH]ncc2c(-c2ncc3c(N4CCCC5(CNC(=O)C5)C4)nc(OCC45CCCN4CCC5)nc3c2F)c1C (stereo not shown) [Example 26, 7-(7-(5,6-dimethyl-1H-indazol-4-yl)-8-fluoro-2-((hexahydro-1H-pyrrolizin-7a-yl)methoxy)pyrido[4,3-d]pyrimidin-4-yl)-2,7-diazaspiro[4.5]decan-3-one] | 2.32 µM | 0.845 µM | ≥ 10 µM | 1.26 µM | – | ≥ 10 µM | – | –

Now from value to compound:

Row | IC50 [1] | IC50 [2] | IC50 [3] | IC50 [4] | IC50 [5] | IC50 [6] | IC50 [7] | IC50 [8] | Structure (SMILES)
9 | 0.006 µM | ≤ 0.002 µM | 0.321 µM | 0.003 µM | ≥ 10 µM | 0.203 µM | 0.042 µM | – | CN(C)CC1(COc2nc(N3CCC[C@@](C)(O)C3)c3cnc(-c4cc(O)cc(Cl)c4C4CC4)c(F)c3n2)CC1 [Example 517, (R)-1-(7-(3-chloro-2-cyclopropyl-5-hydroxyphenyl)-2-((1-((dimethylamino)methyl)cyclopropyl)methoxy)-8-fluoropyrido[4,3-d]pyrimidin-4-yl)-3-methylpiperidin-3-ol]
10 | 0.006 µM | 0.004 µM | 1.53 µM | 0.004 µM | ≥ 10 µM | 1.71 µM | 0.182 µM | – | CCc1c(F)ccc2cc(O)cc(-c3ncc4c(N5C[C@H](O)CC[C@H](O)C5)nc(OC[C@@]56CCCN5C[C@H](F)C6)nc4c3F)c12 [Example 491, (3R,6S)-1-(7-(8-ethyl-7-fluoro-3-hydroxynaphthalen-1-yl)-8-fluoro-2-(((2R,7aS)-2-fluorohexahydro-1H-pyrrolizin-7a-yl)methoxy)pyrido[4,3-d]pyrimidin-4-yl)azepane-3,6-diol]
11 | 1.75 µM | 0.692 µM | ≥ 10 µM | 0.614 µM | – | ≥ 10 µM | – | – | Cc1cc2[nH]ncc2c(-c2ncc3c(N4CCC[C@@](C)(O)C4)nc(OCC4(CN(C)C)CC4)nc3c2F)c1C [Example 520, (3R)-1-(7-(5,6-dimethyl-1H-indazol-4-yl)-2-((1-((dimethylamino)methyl)cyclopropyl)methoxy)-8-fluoropyrido[4,3-d]pyrimidin-4-yl)-3-methylpiperidin-3-ol]
12 | 0.003 µM | 0.004 µM | ≥ 10 µM | ≤ 0.002 µM | – | ≥ 10 µM | – | – | Cc1cc2[nH]ncc2c(-c2ncc3c(N4CCCC5(CNS(=O)(=O)N5)C4)nc(OCC45CCCN4CCC5)nc3c2F)c1C (stereo not shown) [Example 521, 7-(7-(5,6-dimethyl-1H-indazol-4-yl)-8-fluoro-2-((hexahydro-1H-pyrrolizin-7a-yl)methoxy)pyrido[4,3-d]pyrimidin-4-yl)-2-thia-1,3,7-triazaspiro[4.5]decane 2,2-dioxide]
13 | 0.007 µM | 0.008 µM | 1.82 µM | ≤ 0.002 µM | – | 1.35 µM | – | – | CCc1c(F)ccc2cc(O)cc(-c3ncc4c(N(C)CC5CNS(=O)(=O)N5)nc(OC[C@@]56CCCN5C[C@H](F)C6)nc4c3F)c12 (stereo partly shown) [Example 495]
14 | – | – | 0.503 µM | – | ≥ 10 µM | 0.987 µM | 0.043 µM | – | CCc1c(F)ccc2cc(O)cc(-c3ncc4c(N5C[C@H](CO)OC[C@](C)(O)C5)nc(OC[C@@]56CCCN5C[C@H](F)C6)nc4c3F)c12 [Example 497, (2R,6R)-4-(7-(8-ethyl-7-fluoro-3-hydroxynaphthalen-1-yl)-8-fluoro-2-(((2R,7aS)-2-fluorohexahydro-1H-pyrrolizin-7a-yl)methoxy)pyrido[4,3-d]pyrimidin-4-yl)-2-(hydroxymethyl)-6-methyl-1,4-oxazepan-6-ol]
15 | 0.014 µM | 0.005 µM | 2.19 µM | 0.012 µM | – | 1.55 µM | – | – | CCc1c(F)ccc2cc(O)cc(-c3ncc4c(N5CCCC6(CCS(=N)(=O)C6)C5)nc(OC[C@@]56CCCN5C[C@H](F)C6)nc4c3F)c12 (stereo partly drawn) [Example 508, 7-(7-(8-ethyl-7-fluoro-3-hydroxynaphthalen-1-yl)-8-fluoro-2-(((2R,7aS)-2-fluorohexahydro-1H-pyrrolizin-7a-yl)methoxy)pyrido[4,3-d]pyrimidin-4-yl)-2-imino-2-thia-7-azaspiro[4.5]decane 2-oxide]
16 | ≤ 0.002 µM | ≤ 0.002 µM | 9.21 µM | ≤ 0.002 µM | – | ≥ 10 µM | – | – | O=C1CC2(CCCN(c3nc(OCC45CCCN4CCC5)nc4c(F)c(-c5cc(O)cc(Cl)c5C5CC5)ncc34)C2)N1 (stereo not shown) [Example 518, 6-(7-(3-chloro-2-cyclopropyl-5-hydroxyphenyl)-8-fluoro-2-((tetrahydro-1H-pyrrolizin-7a(5H)-yl)methoxy)pyrido[4,3-d]pyrimidin-4-yl)-1,6-diazaspiro[3.5]nonan-2-one]
17 | ≤ 0.002 µM | ≤ 0.002 µM | ≥ 10 µM | ≤ 0.002 µM | – | ≥ 10 µM | – | – | O=C1NC(=O)C2CN(c3nc(OCC45CCCN4CCC5)nc4c(F)c(-c5cc(O)cc(Cl)c5C5CC5)ncc34)CC12 (stereo not shown) [Example 519, 5-(7-(3-chloro-2-cyclopropyl-5-hydroxyphenyl)-8-fluoro-2-((tetrahydro-1H-pyrrolizin-7a(5H)-yl)methoxy)pyrido[4,3-d]pyrimidin-4-yl)tetrahydropyrrolo[3,4-c]pyrrole-1,3(2H,3aH)-dione]
